Experimental findings from US20210038732A1, “ANTICANCER MICRORNA AND LIPID FORMULATIONS THEREOF” (INTERNA TECHNOLOGIES B.V., priority 2018, published 2021) are described below.

The test system of data set [1] is HCT116. The data set can be described thus: Caspase 3/7 apoptosis assay. Type of data set: cell-based. The conditions noted are these: 10 nM, normalized to mock. How it is done: (§1) Depending on cancer cell type 3000-6000 cells were seeded in a 96 well plate. After cells attached, they were transfected with different concentrations of miRNA-193a and apoptosis induction was measured at different time points. This assay was performed using Promega kit. 100 uL of caspase reagent was added to 100 uL of media in each well in 96-well plate and incubated for 2 hours in the dark at room temperature. The luminescent signal was read on a luminescent plate reader.
(§2) Different biological effects of miRNA-193a-3p have been tested in various cancer cell lines (see Table 13). For this, various cells were treated with miRNA-193a at different concentrations (1, 3, 10 nM). For all experiments controls (untreated, mock and scrambled) were measured. All assays were performed at 24h, 48h and 72h time points. Data shown in Table 13 are the results for miRNA-193a at 10 nM concentration at indicated time points. All the results have been quantified and normalized to the mock control.
(§3) miRNA-193a treatment in various cancer cell lines decreased cell viability over time as measured by either an MTS assay or by cell count. It enhanced apoptosis induction over time as measured by a caspase 3/7 apoptosis assay. […] It is of note that due to intrinsic characteristics and gene mutation status of each cell line, performing one method to detect apoptosis is not always ideal for all cell lines.

Data set [2] deals with H1975. The data set is described as follows: Caspase 3/7 apoptosis assay. In kind it is cell-based. The conditions noted are these: 10 nM, normalized to mock. Here is the method: as §1, §2, §3
For a further data set, the system named is LL/2 Lung carcinoma. The data set can be described thus: Primary tumor growth, syngeneic model. Type of data set: in vivo, mice. The following applies: 10 mg/kg i.v BIW x 3-4 weeks, vs PBS. An excerpt: (§4) In this study, the effect of miRNA-193a formulated in diamino lipid nanoparticles was investigated on the primary tumor growth in a panel of twelve syngeneic tumor models. Six to eight weeks mice (Shanghai Lingchang Bio-Technology Co. Ltd, Shanghai, China) were subcutaneously injected with an appropriate number of syngeneic cancer cells, depending on the cancer model (see Table 18). At the time of randomization, tumor volume (TV) was approximately 80-120 mm^3. Body weights and TVs (caliper measurements) were determined 2-3 times/week. After randomization (indicated as day 0) mice received PBS or miR-193a (formulated in diamino lipid nanoparticles) treatments as shown in Table 19. Each tumor model had two groups as depicted in Table 19. Mice were scheduled to be euthanized after two weeks of follow up after a maximum of four weeks of treatment.

A further data set relates to CT26 Colon carcinoma. The data set is described as follows: Primary tumor growth, syngeneic model. In kind it is in vivo, mice. The following applies: 10 mg/kg i.v BIW x 3-4 weeks, vs PBS.
From the text: as §4

The subject of another data set is RM-1 Prostate cancer. The data set is described as follows: Primary tumor growth, syngeneic model. Type of data set: in vivo, mice. The following applies: 10 mg/kg i.v BIW x 3-4 weeks, vs PBS.
From the text: as §4

Data set [3] has as its system A20 Reticulum cell sarcoma (lymphoma). The data set is described as follows: Primary tumor growth, syngeneic model. The following applies: 10 mg/kg i.v BIW x 3-4 weeks, vs PBS. In kind it is in vivo, mice.
From the text: as §4

The next data set concerns B16-BL6 Melanoma. The data set can be described thus: Primary tumor growth, syngeneic model. In kind it is in vivo, mice. The conditions noted are these: 10 mg/kg i.v BIW x 3-4 weeks, vs PBS.
From the text: as §4

Data set [4] has as its system Pan02 Pancreatic adenocarcinoma. The data set is described as follows: Primary tumor growth, syngeneic model. In kind it is in vivo, mice. The following applies: 10 mg/kg i.v BIW x 3-4 weeks, vs PBS.
From the text: as §4

In data set [5] the test system is Renca Renal adenocarcinoma. The data set can be described thus: Primary tumor growth, syngeneic model. Type of data set: in vivo, mice. The following applies: 10 mg/kg i.v BIW x 3-4 weeks, vs PBS.
From the text: as §4

The test system of a further data set is Hepa 1-6 Hepatoma. The data set can be described thus: Primary tumor growth, syngeneic model. In kind it is in vivo, mice. The following applies: 10 mg/kg i.v BIW x 3-4 weeks, vs PBS.
From the text: as §4

Another data set relates to H22 Hepatocarcinoma. The data set can be described thus: Primary tumor growth, syngeneic model. In kind it is in vivo, mice. The following applies: 10 mg/kg i.v BIW x 3-4 weeks, vs PBS.
From the text: as §4

The subject of data set [6] is EMT-6 Breast mammary carcinoma. The data set can be described thus: Primary tumor growth, syngeneic model. Type of data set: in vivo, mice. The conditions noted are these: 10 mg/kg i.v BIW x 3-4 weeks, vs PBS.
From the text: as §4

The test system of a further data set is B16-F10 Melanoma. The data set can be described thus: Primary tumor growth, syngeneic model. Type of data set: in vivo, mice. The conditions noted are these: 10 mg/kg i.v BIW x 3-4 weeks, vs PBS.
From the text: as §4

Another data set deals with MC38 Colon carcinoma. The data set is described as follows: Primary tumor growth, syngeneic model. Type of data set: in vivo, mice. The following applies: 10 mg/kg i.v BIW x 3-4 weeks, diamino lipid nanoparticles, vs PBS, median tumor volume.
From the text: as §4

Another data set deals with EMT6. The data set is described as follows: Cell viability (MTS assay or cell count). Type of data set: cell-based. The following applies: 10 nM; TNBC EMT6; normalized to mock. Here is the method:
(§5) Depending on cancer cell type 3000-6000 cells were seeded in a 96 well plate. After cells attached, they were transfected with different concentrations of miRNA-193a and viability was measured at different time points. Viability measurement was performed using CellTiter 96 AQueous One Solution Cell Proliferation Assay (Promega). 20 μL of MTS reagent was added to 100 μL of media in each well in 96-well plate and incubated for 2 hours at 37° C. Absorbance was measured at 490 nm for each sample in 96 well plate reader.
(§6) Different biological effects of miRNA-193a-3p have been tested in various cancer cell lines (see Table 13). For this, various cells were treated with miRNA-193a at different concentrations (1, 3, 10 nM). For all experiments controls (untreated, mock and scrambled) were measured. […] Data shown in Table 13 are the results for miRNA-193a at 10 nM concentration at indicated time points. All the results have been quantified and normalized to the mock control.
as §3
Background: Formazan colour is commonly taken as a measure of viable cells.

For the next data set, the system named is Panc-1. The data set can be described thus: Cell viability (MTS assay or cell count). In kind it is cell-based. The conditions noted are these: 10 nM; Pancreas Panc-1; normalized to mock. How it is done: as §5, §6, §3
The next data set relates to H1299. The data set can be described thus: Cell viability (MTS assay or cell count). In kind it is cell-based. The conditions noted are these: 10 nM; NSCLC H1299; normalized to mock. Here is the method: as §5, §6, §3
For data set [7], the system named is HCT116. The data set can be described thus: Cell viability (MTS assay or cell count). The conditions noted are these: 10 nM; Colon HCT116; normalized to mock. In kind it is cell-based. How it is done: as §5, §6, §3
Data set [8] concerns H1975. The data set can be described thus: Cell viability (MTS assay or cell count). In kind it is cell-based. The following applies: 10 nM; NSCLC H1975; normalized to mock. Here is the method:
as §5, §6, §3

A further data set relates to HEP3B, SNU449, A2058. The data set can be described thus: Cell cycle distribution by imaging of nuclei (Example 4.9). The conditions noted are these: 1 nM, 3 nM and 10 nM, concentration-dependent; vs mock. In kind it is cell-based. How it is done:
Depending on cancer cell type 3000-6000 cells were seeded in a 96 well plate. After cells attached, they were transfected with different concentrations of miRNA-193a and cell cycle profile was measured at different time points. At selected time points media was aspirated from wells and DNA staining solution (Hoescht 33342/Saponin/PFA) was added to each well and incubated for 2 hours at 37° C. Then, cell images were taken using Thermo Celllnsite in which nuclei were specified and nuclei intensity were measured. Nuclei intensity was analyzed using program R to determine the different phases of the cell cycle (G0/G1, S, G2/M) based on the DNA content.
Similar phenotype has been observed in Panc1 (pancreatic cancer cell) as well as H1975 (lung cancer cell) (data not shown). […] MPP2 and STMN1 associate with cytoskeleton and therefore regulate cell division and proliferation at the G2/M phase, while YWHAZ and CCNA2 play roles in regulation of G2/M phase checkpoint by binding and sequestering the cyclin-dependent kinases.

As for “miRNA-193a: duplex of the miRNA-193a-3p of SEQ ID NO: 218 (mimic, sense) with antisense strand SEQ ID NO: 219; naked in vitro, formulated in vivo (sense UGGGACUUUGUAGGCCAGUUTT; antisense AACUGGCCUACAAAGUCCCAGU; chemistry not given here; listed as Homo sapiens)”, the entries for the “Apoptosis (48/72 h)” value with HCT116 [1] and in the data set with H1975 [2] were “↑↑ (Induction > 2x)” and “↑ (Induction < 2x)”, respectively. In addition, the “% TGI by miRNA-193a” value amounted to 64% in the data set with LL/2 Lung carcinoma; 12% in the data set with CT26 Colon carcinoma; 25% in the data set with RM-1 Prostate cancer; 54% in [3]; 34% in the data set on B16-BL6 Melanoma; 46% in [4]. Also, the “% TGI by miRNA-193a” value was found to be 22% in data set [5]; 7% in the data set with Hepa 1-6 Hepatoma; 45% with H22 Hepatocarcinoma; 42% in data set [6]; 56% with B16-F10 Melanoma; 71% in the data set with MC38 Colon carcinoma. Moreover, the “Viability (96 h)” value in the data set with EMT6, in the data set on Panc-1, with H1299, in the data set on HCT116 [7] and with H1975 [8] was “↓↓ (Viability < 50%)” in each case. In addition, the G2/M arrest result with HEP3B, SNU449, A2058 was “enhances the G2/M arrest”.
